Converted amounts (≈) assume the structure as drawn. The source made the active and inactive calls. The calls are words filed in the database; no cut-off is given here.
What was measured:
[1] = system: Mycolicibacterium smegmatis; experiment: Antimicrobial activity against Mycobacterium smegmatis str. MC2 155 after 24 hrs by broth dilution method; format: functional; conditions: str. MC2 155, 24 h
[2] = system: Mycobacterium tuberculosis; experiment: Antimicrobial activity against Mycobacterium tuberculosis H37Rv at 10 ug/ml after 6 weeks; format: functional, organism-based
[3] = system: Mycobacterium tuberculosis; experiment: Antimicrobial activity against Mycobacterium tuberculosis H37Rv at 0.5 ug/ml after 6 weeks; format: functional, organism-based
[4] = system: Mycolicibacterium smegmatis; experiment: Antimicrobial activity against Mycobacterium smegmatis mc2 155 after 24 hrs at 0.5 ug/ml by broth dilution method; format: functional, organism-based; conditions: str. MC2 155
[5] = system: Mycolicibacterium smegmatis; experiment: Antimicrobial activity against Mycobacterium smegmatis str. MC2 155 after 24 hrs at 1 ug/ml by broth dilution method; format: functional
[6] = system: Mycolicibacterium smegmatis; experiment: Antimicrobial activity against Mycobacterium smegmatis str. MC2 155 after 24 hrs at 100 ug/ml by broth dilution method; format: functional, organism-based

O=C(N/N=C/CCCCCCCc1cccc(O)c1C(=O)O)c1ccncc1
MIC [1]: 4 µg/mL (≈ 10.4 µM)
Activity [2]: Active
Activity [3]: inactive
Activity [4]: inactive

NNC(=O)c1ccncc1 [ISONIAZID]
MIC [1]: 1.5 µg/mL (≈ 10.9 µM)
Activity [5]: 36%

C=CC/C=C\C/C=C\CCCCCCCc1cccc(O)c1C(=O)O
Activity [6]: inactive

O=C(N/N=C/CCCCCCCc1c([N+](=O)[O-])ccc(O)c1C(=O)O)c1ccncc1
MIC [1]: 5 µg/mL (≈ 11.7 µM)
Activity [2]: Active
Activity [3]: inactive
Activity [4]: inactive

CCCCCCCCCCCCCCCc1c([N+](=O)[O-])ccc(O)c1C(=O)O
Activity [6]: inactive

From ChEMBL document CHEMBL1143791, “Synthesis of isonicotinoylhydrazones from anacardic acid and their in vitro activity against Mycobacterium smegmatis” (2007)
